According to patent US9334280B2, “Synthetic rigidin analogues as anticancer agents, salts, solvates and prodrugs thereof, and method of producing same” (New Mexico Technical Research Foundation, priority 2012, dated 2016):
Read-outs that look alike come from different tables or passages of the source.

Tests used:
[1] = system: HeLa cervical adenocarcinoma cells; assay: MTT antiproliferative assay, HeLa; assay type: cell-based; conditions: Homo sapiens
Protocol: (§1) Human T-cell leukemia cell line Jurkat (ATCC TIB-152, E6-1 clone) was cultured in RPMI-1640 (Invitrogen) supplemented with 10% FBS (Invitrogen), 100 mg/L penicillin G, 100 mg/L streptomycin, 1.0 mM sodium pyruvate, 1.5 g/L sodium bicarbonate, and 4.5 g/L glucose (all from Sigma). Human cervical cancer cell line HeLa (ATCC S3) was cultured in DMEM (Invitrogen) supplemented with 10% FBS, 100 mg/L penicillin G, and 100 mg/L streptomycin. MCF-7 (human mammary carcinoma) cells were cultured in DMEM supplemented with 1.0 mM sodium pyruvate, 1% GlutaMax™-1 (Invitrogen), 100 μg/mL penicillin, 100 μg/mL streptomycin, and 10% FBS. Human uterine sarcoma MES-SA and MES-SA/Dx5 cells were cultured in RPMI-1640 medium supplemented with 10% FBS, 100 mg/L penicillin G and 100 mg/L streptomycin. All cells were incubated at 37° C. in a humidified atmosphere with 5% CO2. The other cell lines were maintained in a similar fashion as previously described.
(§2) To evaluate antiproliferative properties of the compounds of Formula I, mitochondrial dehydrogenase activities were measured using the MTT assay. The cell lines were prepared by trypsinizing and seeding […] cells per well into microplates. All compounds were reconstituted in dimethyl sulfoxide (DMSO) at a concentration of either 100 mM or 25 mM prior to treatment. The cells were grown for 24 hrs before treatment at concentrations ranging from 0.004 to 100 microM and incubated for 48 hrs in 200 microL media. 20 microL of MTT reagent in serum free medium (5 mg/mL) was added to each well and incubated further for 2 hrs. Media was removed and the resulting formazan crystals were re-solubilized in 100 microL of DMSO and the optical density (OD) was measured using a Thermomax Molecular Device plate reader at a wavelength of 490 nm. The experiments were performed in quadruplicate and repeated at least twice for each compound per cell line. Cells treated with 0.1% DMSO were used as a negative control, while phenyl arsine oxide (PAO) was used as a positive killing control.
(§3) Human cancer cell lines were obtained from the American Type Culture Collection (ATCC, Manassas, Va., USA), the European Collection of Cell Culture (ECACC, Salisbury, UK) and the Deutsche Sammlung von Mikroorganismen and Zellkulturen (DSMZ, Braunschweig, Germany). Human cervical adenocarcinoma HeLa cells were cultured in DMEM supplemented with 10% fetal bovine serum (FBS). Human mammary carcinoma MCF-7 cells were cultured in RPMI supplemented with 10% FBS. The U87 and U373 cells were cultured in DMEM culture medium (Lonza code 12-136F, Vervier, Belgium), while the SKMEL-28 and A549 cells were cultured in RPMI culture medium (Lonza; code 12-115F) supplemented with 10% heat-inactivated FBS (Lonza, FBS South America code DE14-801F). […] All cell lines were cultured in T25 flasks, maintained and grown at 37° C., 95% humidity, 5% CO2.
(§4) To evaluate antiproliferative properties of the synthesized compounds, the MTT assay was used. The cell lines were assessed by trypsinizing each cell line and seeding 4×10^3 cells per well into 96-well plates. All compounds were dissolved in DMSO at a concentration of either 100 mM or 50 mM prior to cell treatment. The cells were grown for 24 h and then treated with compounds at concentrations ranging from 0.04 to 100 μM and incubated for 48 h in 200 μL media. 20 μL of MTT reagent in serum free medium (5 mg/mL) was added to each well and incubated further for 2 h. Media was removed, and the resulting formazan crystals were re-solubilized in 200 μL of DMSO. A490 was measured using a Thermomax Molecular Device plate reader. The experiments were performed in quadruplicate and repeated at least twice for each compound per cell line. Cells treated with 0.1% DMSO were used as a control, and 1 μM phenyl arsine oxide (PAO) was used as a positive killing control.

[2] = system: MCF-7 mammary gland adenocarcinoma cells; assay: MTT antiproliferative assay, MCF-7; assay type: cell-based; conditions: Homo sapiens
Protocol: as §1, §2, §3, §4

[3] = Table 1, 48 h treatment, MTT, ± SD, read-out: GI50 in vitro Values, HeLa
[4] = MCF7, Table 1, 48 h treatment, MTT, ± SD, read-out: GI50 in vitro Values, MCF-7
[5] = Table 5, 48 h, MTT, ± SD, read-out: cell viability GI50, HeLa
[6] = MCF7, Table 5, 48 h, MTT, ± SD, read-out: cell viability GI50, MCF-7

| GI50 [1, 3] [µM] | GI50 [2, 4] [µM] | GI50 [1, 5] [µM] | GI50 [2, 6] [µM] | SMILES | also measured |
| --- | --- | --- | --- | --- | --- |
| 0.86 ± 0.06 | 1.1 ± 0.12 | – | – | O=C(c1ccccc1)c1[nH]c2[nH]cnc(=O)c2c1-c1cccc(O)c1 [Rig42, 6-Benzoyl-5-(3-hydroxyphenyl)-1H-pyrrolo[2,3-d]pyrimidin-4(7H)-one] | – |
| 6 ± 1 | 0.8 ± 0.01 | – | – | O=C(c1ccc(F)cc1)c1[nH]c2[nH]cnc(=O)c2c1-c1cc(Br)cc(Br)c1 [Rig13, 5-(3,5-Dibromophenyl)-6-(4-fluorobenzoyl)-1H-pyrrolo[2,3-d]pyrimidin-4(7H)-one] | – |
| – | – | 5.1 ± 0.2 | 4.2 ± 0.5 | O=C(c1ccccc1)c1[nH]c2[nH]c(C(F)F)nc(=O)c2c1-c1ccccc1 [Compound 15, 6-Benzoyl-2-(difluoromethyl)-5-phenyl-1H-pyrrolo[2,3-d]pyrimidin-4(7H)-one] | – |
| – | – | – | – | COc1ccc(C(=O)c2[nH]c3[nH]cnc(=O)c3c2-c2cc(OC)c(OC)c(OC)c2)cc1 [Rig19, 6-(4-Methoxybenzoyl)-5-(3,4,5-trimethoxyphenyl)-1H-pyrrolo[2,3-d]pyrimidin-4(7H)-one] | GI50 ([1]; 48 h, read-out: GI50 in vitro Values, HeLa): > 100 µM; GI50 ([2]; MCF7, 48 h, read-out: GI50 in vitro Values, MCF-7): 7 ± 1 µM |
| – | – | 0.34 ± 0.01 | 0.23 ± 0.01 | CCCCc1nc(=O)c2c(-c3ccccc3)c(C(=O)c3ccccc3)[nH]c2[nH]1 [Compound 11, 6-Benzoyl-2-butyl-5-phenyl-1H-pyrrolo[2,3-d]pyrimidin-4(7H)-one] | – |
| 0.187 ± 0.009 | 0.251 ± 0.017 | – | – | N#Cc1cccc(-c2c(C(=O)c3ccccc3)[nH]c3[nH]cnc(=O)c23)c1 [Rig43, 3-(6-Benzoyl-4-oxo-4,7-dihydro-1H-pyrrolo[2,3-d]pyrimidin-5-yl)benzonitrile] | – |
| 0.13 ± 0.05 | 0.06 ± 0.02 | – | – | O=C(c1ccccc1)c1[nH]c2[nH]cnc(=O)c2c1-c1cccc(Br)c1 [Rig33, 6-Benzoyl-5-(3-bromophenyl)-1H-pyrrolo[2,3-d]pyrimidin-4(7H)-one] | – |
| 0.888 ± 0.061 | 1.26 ± 0.18 | – | – | O=C(c1ccccc1)c1[nH]c2[nH]cnc(=O)c2c1-c1cccnc1 [Rig41, 6-Benzoyl-5-(pyridin-3-yl)-1H-pyrrolo[2,3-d]pyrimidin-4(7H)-one] | – |
| 0.4 ± 0.01 | 0.31 ± 0.01 | – | – | O=C(c1ccc(OCc2ccccc2)cc1)c1[nH]c2[nH]cnc(=O)c2c1-c1cc(Br)cc(Br)c1 [Rig11, 6-(4-(Benzyloxy)benzoyl)-5-(3,5-dibromophenyl)-1H-pyrrolo[2,3-d]pyrimidin-4(7H)-one] | – |
| – | – | 0.78 ± 0.05 | 0.93 ± 0.07 | CCOC(=O)CCc1nc(=O)c2c(-c3ccccc3)c(C(=O)c3ccccc3)[nH]c2[nH]1 [Compound 10, 6-Benzoyl-2-(2-ethoxycarbonylethyl)-5-phenyl-1H-pyrrolo[2,3-d]pyrimidin-4(7H)-one] | – |
| 4.88 ± 0.07 | 2.2 ± 0.3 | – | – | O=C(c1ccccc1)c1[nH]c2[nH]cnc(=O)c2c1-c1c(Cl)cccc1Cl [Rig40, 6-Benzoyl-5-(2,6-dichlorophenyl)-1H-pyrrolo[2,3-d]pyrimidin-4(7H)-one] | – |
| 0.2 ± 0.1 | 0.15 ± 0.06 | – | – | O=C(c1ccccc1)c1[nH]c2[nH]cnc(=O)c2c1-c1cccc(I)c1 [Rig36, 6-Benzoyl-5-(3-iodophenyl)-1H-pyrrolo[2,3-d]pyrimidin-4(7H)-one] | – |
| – | – | > 50 | > 50 | O=C(c1ccccc1)c1[nH]c2[nH]c(=O)[nH]c(=O)c2c1-c1ccccc1 [Compound 2] | – |
| – | – | 3 ± 0.2 | 3.2 ± 0.2 | O=C(c1ccccc1)c1[nH]c2[nH]c(CF)nc(=O)c2c1-c1ccccc1 [Compound 14] | – |
| 0.15 ± 0.05 | 0.135 ± 0.075 | – | – | O=C(c1ccccc1)c1[nH]c2[nH]cnc(=O)c2c1-c1cccc(Br)n1 [Rig30, 6-Benzoyl-5-(6-bromopyridin-2-yl)-1H-pyrrolo[2,3-d]pyrimidin-4(7H)-one] | – |
| – | – | 21.5 ± 0.4 | 21.1 ± 1.1 | O=C(c1ccccc1)c1[nH]c2[nH]c(C(F)(F)F)nc(=O)c2c1-c1ccccc1 [Compound 16, 6-Benzoyl-5-phenyl-2-(trifluoromethyl)-1H-pyrrolo[2,3-d]pyrimidin-4(7H)-one] | – |
| – | – | > 50 | > 50 | O=C(c1ccccc1)c1[nH]c2[nH]c(-c3cccnc3)nc(=O)c2c1-c1ccccc1 [Compound 4] | – |
| 0.1 ± 0.07 | 0.06 ± 0.02 | – | – | O=C(c1ccccc1)c1[nH]c2[nH]cnc(=O)c2c1-c1cccc(Cl)c1 [Rig34, 6-Benzoyl-5-(3-chlorophenyl)-1H-pyrrolo[2,3-d]pyrimidin-4(7H)-one] | – |
| 8 ± 1 | 40 ± 4 | – | – | COc1cc(-c2c(C(=O)c3ccccc3)[nH]c3[nH]cnc(=O)c23)cc(I)c1OC [Rig31, 6-Benzoyl-5-(3-iodo-4,5-dimethoxyphenyl)-1H-pyrrolo[2,3-d]pyrimidin-4(7H)-one] | – |
| 0.3 ± 0.07 | 0.11 ± 0.035 | – | – | COc1ccc(C(=O)c2[nH]c3[nH]cnc(=O)c3c2-c2cc(Br)cc(Br)c2)cc1 [Rig10, 5-(3,5-Dibromophenyl)-6-(4-methoxybenzoyl)-1H-pyrrolo[2,3-d]pyrimidin-4(7H)-one] | – |
| 0.303 ± 0.005 | 0.261 ± 0.05 | – | – | O=C(c1ccc(O)cc1)c1[nH]c2[nH]cnc(=O)c2c1-c1ccccc1 [Rig45, 6-(4-Hydroxybenzoyl)-5-phenyl-1H-pyrrolo[2,3-d]pyrimidin-4(7H)-one] | – |
| 7 ± 1 | 10 ± 5 | – | – | COc1cc(-c2c(C(=O)c3ccccc3)[nH]c3[nH]cnc(=O)c23)cc(Br)c1OC [Rig32, 6-Benzoyl-5-(3-bromo-4,5-dimethoxyphenyl)-1H-pyrrolo[2,3-d]pyrimidin-4(7H)-one] | – |
| – | – | 0.92 ± 0.11 | 1.1 ± 0.1 | CCc1nc(=O)c2c(-c3ccccc3)c(C(=O)c3ccccc3)[nH]c2[nH]1 [Compound 12] | – |
| 2 ± 1 | 0.6 ± 0.1 | – | – | O=C(c1ccc(Br)cc1)c1[nH]c2[nH]cnc(=O)c2c1-c1cc(Br)cc(Br)c1 [Rig14, 6-(4-Bromobenzoyl)-5-(3,5-dibromophenyl)-1H-pyrrolo[2,3-d]pyrimidin-4(7H)-one] | – |
| – | – | > 50 | > 50 | CCOC(=O)c1nc(=O)c2c(-c3ccccc3)c(C(=O)c3ccccc3)[nH]c2[nH]1 [Compound 7] | – |
| – | – | > 50 | > 50 | O=C(c1ccccc1)c1[nH]c2[nH]c(-c3ccccc3)nc(=O)c2c1-c1ccccc1 [Compound 3, 6-Benzoyl-2-phenyl-5-phenyl-1H-pyrrolo[2,3-d]pyrimidin-4(7H)-one] | – |
